From PMC5601486, “Identification of 4-phenylquinolin-2(1H)-one as a specific allosteric inhibitor of Akt” (Scientific Reports, 2017)

Legend:
[1] = tested on: PRKCD; experiment: KINOMEscan; details: 50000 nM
Method: KINOMEscan™ selectivity screen
(§1) The assay was perfor med at DiscoveRx Corporation according the methods published previously5. Briefly, Kinase-tagged T7 phage strains were grown in parallel in an E. coli host derived from the BL21 strain. E. coli were grown to log-phase and infected with T7 phage from a frozen stock and incubated with shaking at 32°C until lysis (90-150 minutes). The kinases were produced in HEK-293 cells and subsequently tagged with DNA for qPCR detection. Streptavidin-coated magnetic beads were treated with biotinylated small molecule ligands to generate affinity resins for kinase
(§2) inhibitor or DMSO control was performed in polypropylene 384-well plates for 1 hr at room temperature. After wash with PBS buffer containing 0.05% Tween 20, the beads were incubated in elution buffer (PBS containing 0.05 % Tween 20 and 0.5 μM non-biotinylated affinity ligand) for 30 minutes at room temperature. The kinase concentration in the eluates was measured by qPCR.

[2] = tested on: CHEK2; experiment: KINOMEscan; details: 50000 nM
Method: KINOMEscan™ selectivity screen
(§3) Briefly, Kinase-tagged T7 phage strains were grown in parallel in an E. coli host derived from the BL21 strain. E. coli were grown to log-phase and infected with T7 phage from a frozen stock and incubated with shaking at 32°C until lysis (90-150 minutes). The kinases were produced in HEK-293 cells and subsequently tagged with DNA for qPCR detection. Streptavidin-coated magnetic beads were treated with biotinylated small molecule ligands to generate affinity resins for kinase
as §2

[3] = tested on: PCTK3; experiment: KINOMEscan; details: 50000 nM
Method: KINOMEscan™ selectivity screen
as §1, §2

[4] = tested on: EGFR(L747-E749del, A750P); experiment: KINOMEscan; details: 50000 nM
Method: KINOMEscan™ selectivity screen
as §1, §2

[5] = tested on: JAK3(JH1domain-catalytic); experiment: KINOMEscan; details: 50000 nM
Method: KINOMEscan™ selectivity screen
(§4) The assay was perfor med at DiscoveRx Corporation according the methods published previously5. […] The kinases were produced in HEK-293 cells and subsequently tagged with DNA for qPCR detection. Streptavidin-coated magnetic beads were treated with biotinylated small molecule ligands to generate affinity resins for kinase
as §2

[6] = tested on: FGFR3(G697C); experiment: KINOMEscan; details: 50000 nM
Method: KINOMEscan™ selectivity screen
as §1, §2

[7] = tested on: ABL1(T315I)-nonphosphorylated; experiment: KINOMEscan; details: 50000 nM
Method: KINOMEscan™ selectivity screen
as §3, §2

[8] = tested on: BLK; experiment: KINOMEscan; details: 50000 nM
Method: KINOMEscan™ selectivity screen
as §3, §2

[9] = tested on: CDC2L2; experiment: KINOMEscan; details: 50000 nM
Method: KINOMEscan™ selectivity screen
as §3, §2

[10] = tested on: SRPK1; experiment: KINOMEscan; details: 50000 nM
Method: KINOMEscan™ selectivity screen
as §1, §2

[11] = tested on: MST4; experiment: KINOMEscan; details: 50000 nM
Method: KINOMEscan™ selectivity screen
as §4, §2

[12] = tested on: MEK2; experiment: KINOMEscan; details: 50000 nM
Method: KINOMEscan™ selectivity screen
as §1, §2

[13] = tested on: ASK1; experiment: KINOMEscan; details: 50000 nM
Method: KINOMEscan™ selectivity screen
as §1, §2

[14] = tested on: CAMKK1; experiment: KINOMEscan; details: 50000 nM
Method: KINOMEscan™ selectivity screen
as §1, §2

[15] = tested on: MLK2; experiment: KINOMEscan; details: 50000 nM
Method: KINOMEscan™ selectivity screen
as §1, §2

[16] = tested on: CAMK1; experiment: KINOMEscan; details: 50000 nM
Method: KINOMEscan™ selectivity screen
as §1, §2

[17] = tested on: MEK4; experiment: KINOMEscan; details: 50000 nM
Method: KINOMEscan™ selectivity screen
as §1, §2

[18] = tested on: PIM2; experiment: KINOMEscan; details: 50000 nM
Method: KINOMEscan™ selectivity screen
as §1, §2

[19] = tested on: FER; experiment: KINOMEscan; details: 50000 nM
Method: as §3, §2

[20] = tested on: DAPK3; experiment: KINOMEscan; details: 50000 nM
Method: KINOMEscan™ selectivity screen
as §3, §2

[21] = tested on: BTK; experiment: KINOMEscan; details: 50000 nM
Method: KINOMEscan™ selectivity screen
as §1, §2

[22] = tested on: CSNK1G3; experiment: KINOMEscan; details: 50000 nM
Method: KINOMEscan™ selectivity screen
as §3, §2

[23] = tested on: FLT3(ITD,D835V); experiment: KINOMEscan; details: 50000 nM
Method: KINOMEscan™ selectivity screen
as §1, §2

[24] = tested on: IGF1R; experiment: KINOMEscan; details: 50000 nM
Method: KINOMEscan™ selectivity screen
as §4, §2

[25] = tested on: FLT3(K663Q); experiment: KINOMEscan; details: 50000 nM
Method: KINOMEscan™ selectivity screen
as §3, §2

[26] = tested on: DCAMKL3; experiment: KINOMEscan; details: 50000 nM
Method: KINOMEscan™ selectivity screen
as §3, §2

[27] = tested on: MELK; experiment: KINOMEscan; details: 50000 nM
Method: KINOMEscan™ selectivity screen
as §1, §2

[28] = tested on: DDR1; experiment: KINOMEscan; details: 50000 nM
Method: KINOMEscan™ selectivity screen
as §1, §2

[29] = tested on: LYN; experiment: KINOMEscan; details: 50000 nM
Method: KINOMEscan™ selectivity screen
as §1, §2

[30] = tested on: ABL1(H396P)-phosphorylated; experiment: KINOMEscan; details: 50000 nM
Method: KINOMEscan™ selectivity screen
as §1, §2

[31] = tested on: YANK3; experiment: KINOMEscan; details: 50000 nM
Method: KINOMEscan™ selectivity screen
as §1, §2

[32] = tested on: ABL1(T315I)-phosphorylated; experiment: KINOMEscan; details: 50000 nM
Method: KINOMEscan™ selectivity screen
as §1, §2

[33] = tested on: NEK11; experiment: KINOMEscan; details: 50000 nM
Method: KINOMEscan™ selectivity screen
as §3, §2

[34] = tested on: RSK1(Kin.Dom.1-N-terminal); experiment: KINOMEscan; details: 50000 nM
Method: KINOMEscan™ selectivity screen
as §3, §2

[35] = tested on: CLK1; experiment: KINOMEscan; details: 50000 nM
Method: KINOMEscan™ selectivity screen
as §3, §2

[36] = tested on: TBK1; experiment: KINOMEscan; details: 50000 nM
Method: KINOMEscan™ selectivity screen
as §1, §2

[37] = tested on: DRAK2; experiment: KINOMEscan; details: 50000 nM
Method: KINOMEscan™ selectivity screen
as §1, §2

[38] = tested on: CSK; experiment: KINOMEscan; details: 50000 nM
Method: KINOMEscan™ selectivity screen
as §1, §2

[39] = tested on: EPHB6; experiment: KINOMEscan; details: 50000 nM
Method: KINOMEscan™ selectivity screen
as §1, §2

[40] = tested on: LNCaP cells; experiment: MTS cell proliferation assay; type: cell-based; details: 1 day, 40% confluent
Method: Neuro 2A cells or NIH/3T3 cells (ATCC) were seeded at various confluency in a 96-well plate in 100 µL DMEM containing 5% FBS or 10% FBS with 1% penicillin streptomucin, respectively, at 37 °C in a 5% CO2 and 95% humidity incubator for 18 hr. To each well 1 µL inhibitor with various concentrations or DMSO was added. The final concentrations of the tested inhibitors were 0, 5, 10, 20, 40 and 80 µM for G7 and LY, and 0, 5, 10, 20, 40 and 80 nM for Torin1, based on their respective IC50 values (~µM for G7 and LY and ~ nM for Torin 1). After 24 hr, 20 µL of CellTiter 96® AQueous One Solution Reagent (Promega) were added. The plate was placed in the incubator for 2 h and absorbance at 490 nm was measured with a Synergy HT Microplate Reader (Bio-Tek).
Fig. S8. Effect of G7 on proliferation of LNCaP cells. Cells that were 40% confluent in RPMI-1640 medium containing 10% FBS were treated with inhibitors for 1 day and subjected to MTS assays. *, µM for both G7 and LY and nM for Torin1. Data represent means ± SEM (n=3). G7, 4-phenylquinolin-2(1H)-one, LY, LY294002.

[41] = tested on: MAP4K3; experiment: KINOMEscan; details: 50000 nM
Method: KINOMEscan™ selectivity screen
as §1, §2

[42] = tested on: NEK4; experiment: KINOMEscan; details: 50000 nM
Method: KINOMEscan™ selectivity screen
as §1, §2

[43] = tested on: YES; experiment: KINOMEscan; details: 50000 nM
Method: KINOMEscan™ selectivity screen
as §1, §2

[44] = tested on: ERK2; experiment: KINOMEscan; details: 50000 nM
Method: KINOMEscan™ selectivity screen
as §1, §2

For `Oc1cc(-c2ccccc2)c2ccccc2n1` [G7, 4-phenylquinolin-2(1H)-one], the “Percent Control” value [1] was 100%, the “Percent Control” value [2] was 100% and the “Percent Control” value [3] was 96%. For the same compound, the “Percent Control” value [4] was 89%, the “Percent Control” value [5] was 56% and the “Percent Control” value [6] was 98%. For the same compound, the “Percent Control” value [7] was 86%, the “Percent Control” value [8] was 79% and the “Percent Control” value [9] was 88%. The “Percent Control” value [10] was 47%, the “Percent Control” value [11] was 53% and the “Percent Control” value [12] was 72%. The “Percent Control” value [13] was 94%, the “Percent Control” value [14] was 80% and the “Percent Control” value [15] was 100%. The “Percent Control” value [16] was 84%, the “Percent Control” value [17] was 93% and the “Percent Control” value [18] was 68%. For the same compound, the “Percent Control” value [19] was 84%, the “Percent Control” value [20] was 74% and the “Percent Control” value [21] was 50%. The “Percent Control” value [22] was 71%, the “Percent Control” value [23] was 34% and the “Percent Control” value [24] was 76%. For the same compound, the “Percent Control” value [25] was 29%, the “Percent Control” value [26] was 91% and the “Percent Control” value [27] was 97%. The “Percent Control” value [28] was 84%, the “Percent Control” value [29] was 88% and the “Percent Control” value [30] was 66%. For the same compound, the “Percent Control” value [31] was 93%, the “Percent Control” value [32] was 64% and the “Percent Control” value [33] was 90%. The “Percent Control” value [34] was 23%, the “Percent Control” value [35] was 69% and the “Percent Control” value [36] was 95%. The “Percent Control” value [37] was 86%, the “Percent Control” value [38] was 76% and the “Percent Control” value [39] was 14%. The “proliferation of LNCaP prostate cancer cells” value [40] was “inhibited the proliferation”, the “Percent Control” value [41] was 89% and the “Percent Control” value [42] was 95%. For the same compound, the “Percent Control” value [43] was 93% and the “Percent Control” value [44] was 93%.
